# According to patent US20060276390A1, “Combined treatments comprising synthetic peptide copolymers for preventing graft rejection” (YEDA RESEARCH AND DEVELOPMENT CO. LTD., priority 2003, published 2006):
# Values joined by “and” are separate entries in the source; they are usually repeats but may differ in a detail not shown here. Identical values can stand only once. “Also recorded” adds a separate entry of the source. Like-named read-outs stand apart in the source and are kept apart here.
# Legend:
# [1] = system: BALB/c recipient mice transplanted with skin grafts from B10.D2 donors; test: Skin graft rejection, B10.D2→BALB/c model; assay type: in vivo, mouse
# Method: (§1) Mice were kept in separate cages and inspected daily.
# (§2) The transplanted mice or rats were treated daily with Copolymer 1 at doses of 0.6-2.5 mg/day for mice and 25 mg/day for rats in PBS solution, starting 7 or 14 days before transplantation. In some cases, the first Cop 1 treatment was injected sc in ICFA as a depot dose.
# To test the effect of Copolymer 1 treatment on skin graft rejection in the B10.D2→BALB/c model, BALB/c recipient mice were transplanted with skin grafts from B10.D2 donors and were treated daily with: PBS ip from day −7, Copolymer 1 (ip+sc) from day −7. Grafts were inspected daily.
# Grafts were inspected daily. […] Thyroid glands from B10.D2 donors were transplanted in the kidney's capsules of BALB/c mice.
# [2] = system: Lewis rats transplanted with an accessory heart from allogeneic disparate BN donor rats; assay type: in vivo
# Text: Lewis rats were transplanted with an accessory heart from the allogeneic disparate BN donor rats. […] Combination of pretreatment with GA and the respective doses of the immunosuppressants (open bars); Treatment with GA administered from the day of transplantation without pretreatment (striped bar). Cardiac allograft survival was inspected by daily monitoring palpation of the grafts. Grafts were considered rejected when no heart palpitations could be observed.
# [3] = system: thyroid glands from B10.D2 donors transplanted in the kidney's capsules of BALB/c mice; test: Function of transplanted thyroids (I125 absorbance), B10.D2→BALB/c model; assay type: in vivo, mouse; conditions: for MFI (mean function index): fold over PBS
# Method: (§3) In this transplantation model for HVG, thyroid glands from donor mice were transplanted in the kidney's capsules of recipient mice. One week later the transplanted mice were injected with ^125I, and the radioactivity of each kidney (the recipient or the untransplanted kidney) was measured after 20 hours. Δcpm was calculated by subtracting the ^125I absorbance of the untransplanted kidneys from the ^125I absorbance of the recipient kidneys in the same treatment. The mean function index (MFI) for treatment was calculated by dividing the mean Δcpm for the tested treatment by the mean Δcpm for the PBS treatment. P values were obtained by the ANOVA test. This assay indicates objectively and quantitatively not only the graft survival, but also the function (iodine absorbance) of the transplanted thyroid tissue (Isakov et al., 1979).
# as §2
# To test the effect of Copolymer 1 treatment on the function of transplanted thyroids in the B10.D2→BALB/c model, thyroid glands from donors B10.D2 were transplanted in the kidney's capsules of BALB/c mice. After one week the transplanted mice were injected with I^125, and the radioactivity of each kidney was measured 20 hours later. A cpm was calculated by subtracting the I^125 absorbance of the untransplanted kidneys from the I^125 absorbance of the recipient kidneys in the same treatment. The mean function index (MFI) for each treatment was calculated by dividing the mean I^125 absorbance of (transplanted kidney—untransplanted kidney) in the tested treatment by the mean I^125 absorbance of (transplanted kidney—untransplanted kidney) in the PBS treatment, as follows: [formula]
# [4] = system: BALB/c recipient mice transplanted with skin grafts from C57BL donors; conditions: for mean survival time (MST) of skin graft / prolongation of skin graft survival: FIG. 3 experiment
# Method: BALB/c mice were transplanted with skin grafts from C57BL/6 donors. […] Grafts were considered rejected when no viable donor epidermis remained. At least 7 mice were tested in each group.
# Skin transplantation is an established model to measure immune rejection. In this model recipient and donor mice were anesthetized, shaved and cleaned. Circular pieces of skin (1.0 to 1.3 cm in diameter) were cut from dorsal side of the donor mice and dorsally transplanted to recipient animals by the use of histoacryl (Braun, Melsungen, Germany). The grafts were covered with Nobecutane antiseptic spray bandage (Astra, Wedel, Germany). Mice were kept in separate cages and inspected daily. Grafts were considered rejected when no viable donor epidermis remained.
# Three murine strain combinations: B10.D2→BALB/c in the H-2^d haplotype, C57BL→C3HSW in the H-2^b haplotype, and B10PL→PL/J in the H-2^u haplotype, were tested across minor histocompatibility barriers, and across major histocompatibility barriers transplantation was tested in C57BL→BALB/c in the H-2^b→H-2^d haplotype. These strain combinations were tested with Copolymer 1 both using skin and thyroid transplantations.
# BALB/c recipient mice were transplanted with skin grafts originated in C57BL donors in day 0. GA (100 mg/kg, s.c.) was injected daily starting 2 weeks before transplantation. […] Rejection was considered positive when no viable donor epidermis remained.
# [5] = system: thyroid glands from C57BL mice transplanted in the kidney capsule of BALB/c mice; test: Function of transplanted thyroids (I125 absorbance), C57BL→BALB/c model; assay type: in vivo, mouse
# Method: as §3
# BALB/c recipient mice were transplanted in the kidney's capsules with thyroid glands from donor mice in day 0. Grafts were inspected daily. The function (iodine absorbance) of the transplanted thyroid tissue was examined 10 days after transplantation by measuring the iodine absorbance in the kidney.
# Thyroid glands from C57BL mice were transplanted in the kidney capsule of BALB/c mice. Nine days after transplantation, mice were injected with 1 μcI^125, and the radioactivity of each kidney was measured 20 hr. later. MFI—denotes the mean function index, calculated as
# MFI=mean Δcpm for the tested treatment/mean Δcpm for the PBS tested treatment
# C57BL→C3H thyroid graft = test: Thyroid rejection (I125 absorbance), C57BL→C3H (H-2b); assay type: in vivo, mouse; conditions: Cop 1
# Method: as §3, §2
# C57BL→C3HSW skin graft = test: Skin graft rejection, C57BL→C3HSW (H-2b); assay type: in vivo, mouse; conditions: Cop 1
# Method: as §1, §2
# B10PL→PL/J skin graft = test: Skin graft rejection, B10PL→PL/J (H-2u); assay type: in vivo, mouse; conditions: Cop 1
# Method: as §1, §2
# B10PL→PL/J thyroid graft = test: Thyroid rejection (I125 absorbance), B10PL→PL/J; assay type: in vivo, mouse; conditions: Cop 1
# Method: as §3, §2
# [6] = FK 506 300 μg/day ip, 7 times from day −2
# [7] = Cop 1 600 μg/day ip from day −7
# [8] = Cop 1, another experiment (N=5)
# [9] = Cop 1 2.5 mg/mouse, Table 7 Part 1
# [10] = Cop 1 2.5 mg/mouse, Table 7 Part 2
# [11] = Cop 1, C57BL → BALB (H-2b → H-2d), Table 5
compound,measurement,setting,value
"C=CC[C@@H]1/C=C(\C)C[C@H](C)C[C@H](OC)[C@H]2O[C@@](O)(C(=O)C(=O)N3CCCC[C@H]3C(=O)O[C@H](/C(C)=C/[C@@H]3CC[C@@H](O)[C@H](OC)C3)[C@H](C)[C@@H](O)CC1=O)[C@H](C)C[C@@H]2OC [FK 506, tacrolimus]",MST (Mean Survival Time) of skin graft,"[1]; FK506 300 μg/day ip, 7 injections from day −2",21.2 days
same,MST (Mean Survival Time) of skin graft,"[1]; FK506 300 μg/day ip, 7 injections from day −2, listed as FK506",21.2 ± 4.3 days
same,Prolongation,[2]; FK 506 1.25 mg/kg alone,15.3 days
same,MST (Mean Graft Survival Time) of heart graft,"[2]; FK 506 1.25 mg/kg daily from 6 days before transplantation, alone, 1.25 mg/kg",22.5 days and 22.5 ± 0.9 days
same,Prolongation,[2]; FK 506 2.5 mg/kg alone,18.3 days
same,MST (Mean Graft Survival Time) of heart graft,"[2]; FK 506 2.5 mg/kg alone, 2.5 mg/kg",25.5 days and 25.5 ± 1.4 days
same,toxicity in rats,"[2]; FK 506 2.5 mg/kg, 2.5 mg/kg",toxic consequences
same,death of rats after number of daily injections,[2]; FK506 5 mg/kg,6-8 daily injections
same,toxicity in rats,"[2]; FK 506 5.0 mg/kg, 5 mg/kg",toxic consequences; also recorded: toxic all rats died
same,"Mean I^125 Absorption, Transplanted Kidney",[3]; [6],3117 cpm
same,Δcpm (transplanted minus untransplanted kidney),[3]; [6],2424 cpm
same,MFI (mean function index),[3]; FK 506 300 μg/day,3.1
same,mean survival time (MST) of skin graft,[4]; FK 506 5 mg/kg,9.5 days
same,prolongation of skin graft survival,[4]; FK 506 5 mg/kg,12%
same,mean survival time (MST) of skin graft,[4]; FK 506 10 mg/kg,13.8 days
same,prolongation of skin graft survival,[4]; FK 506 10 mg/kg,88%
same,Prolongation,[4]; FK 506 1.25 mg/kg alone,8%
same,MST (Mean Graft Survival Time),"[4]; FK 506 1.25 mg/kg i.m. daily from 6 days before transplantation, alone",11.2 days
same,MST (Mean Graft Survival Time),[4]; FK 506 2.5 mg/kg alone,11.8 days
same,Prolongation,[4]; FK 506 2.5 mg/kg alone,13%
same,MST (Mean Graft Survival Time),[4]; FK 506 5.0 mg/kg alone,12.7 days
same,Prolongation,[4]; FK 506 5.0 mg/kg alone,22%
same,MST (Mean Graft Survival Time),[4]; FK 506 10 mg/kg alone,16.0 days
same,Prolongation,[4]; FK 506 10 mg/kg alone,54%
same,mortality,"[4]; higher dose, FK 506 10 mg/kg, average",20 % of the mice
same,toxic effect on the mice,"[4]; mouse, in vivo, 10 mg/kg",considerable weight loss and weakness
same,MFI,[5]; FK506 1.25 mg/kg,3.1
same,"Mean I^125 Absorbance, Transplanted kidney",[5]; FK506 1.25 mg/kg,928 ± 165 cpm
same,Δcpm,[5]; FK506 1.25 mg/kg,327 cpm
same,MFI,[5]; FK506 2.5 mg/kg,4.1
same,"Mean I^125 Absorbance, Transplanted kidney",[5]; FK506 2.5 mg/kg,772 ± 519 cpm
same,Δcpm,[5]; FK506 2.5 mg/kg,431 cpm
same,MFI,[5]; FK506 5 mg/kg,3.7
same,"Mean I^125 Absorbance, Transplanted kidney",[5]; FK506 5 mg/kg,1167 ± 636 cpm
same,Δcpm,[5]; FK506 5 mg/kg,383 cpm
glatiramer acetate [Cop 1],MFI (mean function index),C57BL→C3H thyroid graft,2.3
same,"Mean I^125 Absorption, Transplanted Kidney",C57BL→C3H thyroid graft,1643 cpm
same,Δcpm,C57BL→C3H thyroid graft,1362 cpm
same,MST (Mean Survival Time) of skin graft,[1]; Cop 1 300 μg/day ip+sc daily from day −7,20.4 ± 4.5 days
same,MST (Mean Survival Time) of skin graft,"[1]; Cop 1 300 μg/day ip+sc daily from day −7, listed as Copolymer 1",20.4 days
same,MST (Mean Survival Time) of skin graft,[1]; Cop 1 600 μg/day ip+sc daily from day −7,20.6 days and 20.6 ± 3.3 days
same,MST (Mean Survival Time) of skin graft,"[1]; Cop 1 600 μg/day ip+sc daily from day −7, listed as Copolymer 1",20.6 days
same,Prolongation,"[2]; GA 100 mg/kg alone, vs untreated control",0.4 days
same,MST (Mean Graft Survival Time) of heart graft,"[2]; GA 100 mg/kg daily from 2 weeks before transplantation, alone",7.6 ± 0.5 days
same,effect on heart graft survival,[2]; GA treatment by itself,did not prolong graft survival
same,"Mean I^125 Absorption, Transplanted Kidney",[3]; [7],2901 cpm
same,Δcpm (transplanted minus untransplanted kidney),[3]; [7],2451 cpm
same,MFI (mean function index),"[3]; Cop 1 600 ug/day, another experiment (N=5)",5.2
same,MFI (mean function index),[3]; Cop 1 600 μg/day,3.2
same,"Mean I^125 Absorption, Transplanted Kidney",[3]; [8],1035 cpm
same,Δcpm,[3]; [8],898 cpm
same,MST (Mean Survival Time) of skin graft,C57BL→C3HSW skin graft,17.7 ± 2.1
same,MST (Mean Survival Time) of skin graft,B10PL→PL/J skin graft,17.6 ± 5.1
same,MST (Mean Survival Time) of skin graft,"[4]; Cop 1, listed as printed C57BL→C3HSW (H-2b → H-2d)",18.5 ± 3.3
same,prolongation of skin graft survival,[4]; GA 100 mg/kg,27%
same,mean survival time (MST) of skin graft,"[4]; GA 100 mg/kg, untreated control 8.5 days",10.8 days
same,Prolongation,"[4]; GA 100 mg/kg alone, Table 6A",10%
same,MST (Mean Graft Survival Time),"[4]; GA 100 mg/kg alone, Table 6B",11.5 days
same,Prolongation,"[4]; GA 100 mg/kg alone, Table 6B",11%
same,appearance of mice,[4]; GA 100 mg/kg injected daily,looked completely healthy
same,MST (Mean Graft Survival Time),"[4]; GA 100 mg/kg s.c. daily from 2 weeks before transplantation, alone, Table 6A",12.3 days
same,MFI (mean function index),B10PL→PL/J thyroid graft,2.5
same,"Mean I^125 Absorption, Transplanted Kidney",B10PL→PL/J thyroid graft,2009 cpm
same,Δcpm,B10PL→PL/J thyroid graft,1677 cpm
same,MFI,[5]; [9],3.5
same,"Mean I^125 Absorbance, Transplanted kidney",[5]; [9],439 ± 31 cpm
same,Δcpm,[5]; [9],122 cpm
same,MFI,[5]; [10],2.4
same,"Mean I^125 Absorbance, Transplanted kidney",[5]; [10],671 ± 24 cpm
same,Δcpm,[5]; [10],247 cpm
same,MFI (mean function index),[5]; [11],3.0
same,"Mean I^125 Absorption, Transplanted Kidney",[5]; [11],10759 cpm
same,Δcpm,[5]; [11],9835 cpm
